# Source: patent publication US20250346642A1, “NEW SPLICE VARIANT ISOFORM OF VEGF” (CENTRE NATIONAL DE LA RECHERCHE SCIENTIFIQUE (CNRS), priority 2020, published 2025)
# Read-outs that look alike come from different tables or passages of the source.
# T1: VEGFR3 (UniProt P35916 25-776, limits assumed)
# T1 sequence (looked up): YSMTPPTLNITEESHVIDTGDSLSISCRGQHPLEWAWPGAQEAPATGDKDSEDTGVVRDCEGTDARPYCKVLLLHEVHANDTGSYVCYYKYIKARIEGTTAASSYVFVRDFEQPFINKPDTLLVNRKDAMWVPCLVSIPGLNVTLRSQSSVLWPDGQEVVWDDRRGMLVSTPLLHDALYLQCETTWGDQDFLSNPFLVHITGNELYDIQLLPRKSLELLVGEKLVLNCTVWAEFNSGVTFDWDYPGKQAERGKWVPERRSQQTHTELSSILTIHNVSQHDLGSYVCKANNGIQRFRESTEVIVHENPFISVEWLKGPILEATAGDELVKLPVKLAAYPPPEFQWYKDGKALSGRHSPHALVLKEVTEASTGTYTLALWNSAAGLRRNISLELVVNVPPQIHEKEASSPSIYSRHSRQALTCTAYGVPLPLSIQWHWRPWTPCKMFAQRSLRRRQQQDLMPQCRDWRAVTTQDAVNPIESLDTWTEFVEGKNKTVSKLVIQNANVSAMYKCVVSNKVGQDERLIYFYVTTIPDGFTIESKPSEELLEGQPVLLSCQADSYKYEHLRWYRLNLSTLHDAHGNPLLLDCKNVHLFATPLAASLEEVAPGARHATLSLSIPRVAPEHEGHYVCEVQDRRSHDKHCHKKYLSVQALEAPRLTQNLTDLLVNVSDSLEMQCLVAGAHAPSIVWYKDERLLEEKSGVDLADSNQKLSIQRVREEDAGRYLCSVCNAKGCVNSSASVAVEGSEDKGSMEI
# Key:
# [1] = tested on: ACHN cells; experiment: RT-qPCR of VEGF and VEGF222/NF in ACHN cells transduced with shRNA; format: cell-based
# From the text: (§1) For these constructs, the C-terminal V5-tag was not in frame. To generate lentiviral shRNA plasmids, pLKO.1-TRC cloning vector, a kind gift from David Roots, has been used. pLKO.1-TRC contains a 1.9 kb stuffer released by Agel and EcoRI digestion. shRNA oligos were annealed and ligated into the Agel and EcoRI sites in place of the stuffer. The following shRNA sequences were used: shScramble: 5′-[…]-3′ (SEQ ID NO: 26); shVEGF #1: 5′-[…]-3′ (SEQ ID NO: 27) shVEGF #2: 5′-[…]-3′ (SEQ ID NO: 28); shVEGFNF #1: 5′-[…]-3′ (SEQ ID NO: 29); shVEGFNF #2: 5′-[…]-3′(SEQ ID NO: 30); shNRP1: 5′-[…]-3′(SE ID NO: 31); shNRP2: 5′-[…]-3 (SEQ ID NO: 32)′. All plasmids were verified by Sanger sequencing (Eurofins Genomics).
# (§2) Lentivirus were produced by triple transfection of HEK-293T cells with a lentiviral transfer vector (pLenti6.3 for overexpression experiments and pLKO.1 for shRNA experiments), and the packaging plasmids psPAX2 and pMD2.G at a 0.3:0.3:0.1 ratio. Transfection was performed using JetPEI® reagent as recommended by the manufacturer Polyplus transfection. The viral supernatant was collected 48 hours following transfection, filtered through a 0.22 μm filter, and added to target cells.
# (§3) RT-PCR and RT-qPCR analyses were carried out on human tissue mRNA (BIOCHAIN®) and on cancer cell lines. mRNAs were prepared with a Nucleospin RNA kit (Macherey-Nagel), and cDNA synthesis was performed with a Maxima First Strand CDNA Synthesis Kit for RT-qPCR, with dsDNase (Fischer scientific), according to the manufacturers' instructions.
# (§4) PCR analysis was performed on Biometra thermal cycler with PrimeSTAR GXL DNA polymerase (Takara Bio). Quantitative PCR analysis was performed on Applied Biosystems StepOnePlus™ System with TB Green® premix Ex Taq™ (Tli RNase H Plus) (Takara Bio) reagents. All samples were assayed in triplicate. Relative expression levels were determined with the dCt method and normalized to the 36B4 reference gene.
# [2] = tested on: 786-O cells; experiment: RT-qPCR of VEGF and VEGF222/NF in 786-O cells transduced with shRNA; format: cell-based
# From the text: as §1, §2, §3, §4
# [3] = tested on: metastatic ccRCC; experiment: PFS and OS of metastatic (M1) ccRCC patients treated by sunitinib, grouped by plasma VEGF222/NF; format: in vivo, human
# Protocol: Informed consent was obtained from all individual participants included in the study. All patients gave written consent for the use of tumor and blood samples for research. This study was conducted in accordance with the Declaration of Helsinki. Primary tumor samples of 93 non-metastatic (M0) ccRCC patients were obtained from the Rennes and Bordeaux University Hospitals (UroCCR group, NCT03293563). For metastatic patients, the population of the study included 47 ccRCC patients from the prospective SUVEGIL (NCT00943839) and TORAVA (NCT00619268) trials and from a retrospective cohort from Pavia (Italy).
# Informed consent was obtained from all individual participants included in the study. All patients gave written consent for the use of tumor and blood samples for research. This study was conducted in accordance with the Declaration of Helsinki. Primary tumor samples of 93 non-metastatic (M0) ccRCC patients were obtained from the Rennes and Bordeaux University Hospitals (UroCCR group, NCT03293563). For metastatic patients, the population of the study included 47 ccRCC patients from the prospective SUVEGIL (NCT00943839) and TORAVA (NCT00619268) trials and from a retrospective cohort from Pavia (Italy). Metastatic patients received oral sunitinib (50 mg per day) once a day for 4 weeks (on days 1 to 28), followed by 2 weeks of treatment interruption. Sunitinib was continued in the absence of disease progression or unacceptable toxicity. Blood samples were collected before the beginning of the treatment (TO). Blood samples were centrifuged (10 000 g for 10 min) and the plasmas were collected and conserved at −80° C. Plasmatic levels of VEGF and VEGF222/NF were determined by ELISA as described in the ELISA method details section. PFS and OS were calculated from patient subgroups with VEGFA or VEGF222/NF plasmatic levels that were less or greater than the third quartile value.
# Statistical analysis was carried out using GraphPad Prism 8. Data were expressed as mean±SEM and were compared using an unpaired Mann-Whitney test for intergroup analysis. For patients: The Student's t-test was used to compare continuous variables and chi-square test, or Fisher's exact test (when the conditions for use of the χ2-test were not fulfilled), were used for categorical variables. DFS was defined as the time from surgery to the appearance of metastasis. PFS was defined as the time between surgery and progression, or death from any cause, censoring live patients and progression free at the last follow-up. OS was defined as the time between surgery and the date of death from any cause, censoring those alive at the last follow-up. The Kaplan-Meier method was used to produce survival curves and analyses of censored data were performed using Cox models. Significance was defined as P<0.05.
# The detrimental effects of VEGF222/NF in immunodeficient mice and zebrafish models prompted us to analyze the prognostic impact of its plasmatic levels in comparison to plasmatic VEGF level on a cohort of 47 metastatic (M1) ccRCC patients treated by sunitinib. The third quartile was used as the cut-off to determine patients' groups, respectively 4500 […] for VEGF and VEGF222/NF. […] However, patients with high plasmatic levels of both VEGF222/NF and VEGF had the shortest PFS (FIG. 14). […] Whereas VEGF was not associated with a significant effect on OS, high expression of VEGF222/NF WAS synonymous of a shorter overall survival (OS) in M1 patients (FIGS. 13C,D).
# [4] = In vivo […] plug assay (hemoglobin content); set-up: species or system mice; conditions: 200 ng in 200 μL MATRIGEL, two weeks
# Protocol: A″) VEGF222/NF induces phosphorylation of VEGFR2 and activation of the downstream signaling pathways AKT and ERK. […] Cells were washed with PBS and lyzed with Laemmli buffer. Immuno blots were performed with the indicated antibodies. […] Cells were counted for 7 days. […] D) Wound closure was determined at 3 h, 6 h, 9 h and 12 h following treatment. E) In vitro permeability assay. […] Streptavidin-HRP was then added to the transwell for 10 minutes and TMB substrate was added in the lower compartment to assess permeability. F) In vivo permeability assay. […] After 20 minutes, ears were recovered, and the amount of Evans blue was determined by colorimetry (top panel). […] G) In vivo plug assay. […] Representative photographs of the […]® plug 15 days after implantation (bottom panel).
# 6-weeks old female NMRI mice (n=15) were used for this experiment. […] […]® plugs were recovered after two weeks for hemoglobin quantity analysis. Plugs hemoglobin content was assessed with the hemoglobin assay kit (Sigma Aldrich) and experiments were conducted according to the manufacturer recommendations. Results are expressed in micrograms of hemoglobin per milligram of […]®.
# [5] = tested on: ACHN cells; experiment: Proliferation of ACHN cells overexpressing VEGF165 or VEGF222/NF; format: cell-based; conditions: overexpression in ACHN cells, versus LacZ
# Protocol: FIG. 6. VEGF222/NF promotes the proliferation and the survival of RCC cells. […] Cells were counted for 7 days. ***P<0.001 vs LacZ. D-E) RT-qPCR analysis of the expression of VEGF222/NF and VEGF in ACHN (D) and in 786-O (E) cells transduced with pLKO.1 expressing shVEGF165 or shVEGF222/NF. *P<0.05. **P<0.01, ***P<0.001 vs Scramble.
# For endothelial cell proliferation assays, TIME or HDLECs cells (50.000 and 25.000, respectively) were seeded in 6-well plates in Endothelial Cell Growth Medium (Promocell) containing 0.5% FBS. […] Results were expressed as fold increase considering day 0 as the reference. For ACHN proliferation, ACHN-LacZ, ACHN-VEGF165, ACHN-VEGF222/NF cells were seeded (20.000) in 6-well plates in DMEM medium containing 0.5% FBS. Cells were counted at day 0, 1, 3, 5 and 7. Results are expressed as fold increase considering day 0 as the reference.
# [6] = biological target: T2, VEGFR1 (UniProt P17948 27-756, limits assumed); experiment: saturation binding experiment
# T2 construct: also called VEGFR1/Flt1
# T2 sequence (P17948 27-756 limits assumed): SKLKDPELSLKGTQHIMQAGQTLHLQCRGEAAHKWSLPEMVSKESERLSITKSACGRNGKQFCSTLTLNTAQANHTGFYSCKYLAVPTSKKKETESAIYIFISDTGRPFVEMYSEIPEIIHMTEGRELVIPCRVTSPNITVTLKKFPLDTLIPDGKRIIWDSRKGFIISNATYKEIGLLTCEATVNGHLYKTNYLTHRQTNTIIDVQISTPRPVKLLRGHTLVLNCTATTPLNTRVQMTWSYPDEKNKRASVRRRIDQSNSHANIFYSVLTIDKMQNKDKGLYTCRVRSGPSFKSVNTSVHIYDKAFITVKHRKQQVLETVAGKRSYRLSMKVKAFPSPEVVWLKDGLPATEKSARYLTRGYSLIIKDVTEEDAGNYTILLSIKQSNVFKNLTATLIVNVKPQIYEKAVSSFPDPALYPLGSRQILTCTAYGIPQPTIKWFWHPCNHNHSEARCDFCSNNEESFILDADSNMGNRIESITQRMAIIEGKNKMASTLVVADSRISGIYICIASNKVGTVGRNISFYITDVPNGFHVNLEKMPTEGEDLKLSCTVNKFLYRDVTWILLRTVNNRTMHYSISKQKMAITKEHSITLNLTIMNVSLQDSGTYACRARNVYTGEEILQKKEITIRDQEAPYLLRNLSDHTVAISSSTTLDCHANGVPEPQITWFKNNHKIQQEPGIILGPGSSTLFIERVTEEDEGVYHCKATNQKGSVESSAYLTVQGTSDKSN
# [7] = biological target: T3, VEGFR2 (UniProt P35968 20-764, limits assumed); experiment: saturation binding experiment
# T3 construct: also called VEGFR2/KDR
# T3 sequence (P35968 20-764 limits assumed): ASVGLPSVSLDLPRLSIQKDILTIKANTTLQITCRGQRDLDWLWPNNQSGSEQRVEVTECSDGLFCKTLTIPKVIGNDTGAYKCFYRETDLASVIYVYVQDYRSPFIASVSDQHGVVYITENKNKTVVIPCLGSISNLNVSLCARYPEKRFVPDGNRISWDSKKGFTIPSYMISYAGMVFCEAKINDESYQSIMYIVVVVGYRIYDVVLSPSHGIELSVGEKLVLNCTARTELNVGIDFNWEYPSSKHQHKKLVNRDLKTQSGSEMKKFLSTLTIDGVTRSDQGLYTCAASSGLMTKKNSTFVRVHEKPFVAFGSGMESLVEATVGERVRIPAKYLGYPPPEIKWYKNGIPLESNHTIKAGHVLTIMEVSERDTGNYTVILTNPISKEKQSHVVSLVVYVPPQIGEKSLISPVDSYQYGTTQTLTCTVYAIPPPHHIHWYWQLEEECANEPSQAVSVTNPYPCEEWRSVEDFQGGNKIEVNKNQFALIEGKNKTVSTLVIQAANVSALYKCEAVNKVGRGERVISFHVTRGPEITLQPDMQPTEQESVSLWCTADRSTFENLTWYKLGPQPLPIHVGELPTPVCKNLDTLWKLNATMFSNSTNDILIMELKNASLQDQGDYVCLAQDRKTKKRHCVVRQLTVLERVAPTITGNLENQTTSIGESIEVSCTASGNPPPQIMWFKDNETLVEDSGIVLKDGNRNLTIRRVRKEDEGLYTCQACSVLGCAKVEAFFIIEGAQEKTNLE
# [8] = biological target: T1, VEGFR3; experiment: saturation binding experiment
# [9] = ACHN cells, pLKO.1 lentiviral transduction
# [10] = 786-O cells, pLKO.1 lentiviral transduction
molecule,measurement,setting,value
5′-CATITCCCTCAGATGTGACAA-3′ (CATTTCCCTCAGATGTGACAA; chemistry not given here) [shRNA NF #2],expression of the respective target (VEGF or VEGF222/NF),[1],downregulated the expression of their respective targets
same,expression of the respective target (VEGF or VEGF222/NF),[2],downregulated the expression of their respective targets
5′-GCGCAAGAAATCCCGGTATAA-3′ (expressed or natural sequence) [shRNA #1],expression of the respective target (VEGF or VEGF222/NF),[1]; [9],downregulated the expression of their respective targets
same,expression of the respective target (VEGF or VEGF222/NF),[2]; [10],downregulated the expression of their respective targets
CCN(CC)CCNC(=O)c1c(C)[nH]c(/C=C2\C(=O)Nc3ccc(F)cc32)c1C [sunitinib],Death %,[3]; High VEGF222/NF,83%
same,OS (months),[3]; High VEGF222/NF,13 months
same,PFS (months),[3]; High VEGF222/NF,5 months
same,progression %,[3]; High VEGF222/NF,83%
same,Death %,[3]; Low VEGF222/NF,68%
same,OS (months),[3]; Low VEGF222/NF,37 months
same,PFS (months),[3]; Low VEGF222/NF,15 months
same,progression %,[3]; Low VEGF222/NF,76%
same,Death %,[3]; Total,75%
same,OS (months),[3]; Total,33 months
same,progression %,[3]; Total,82%
same,PFS (months),"[3]; Total, 47 M1 ccRCC patients",12 months
5′-AGGGCAGAATCATCACGAAGT-3′ (expressed or natural sequence) [shRNA #2],expression of the respective target (VEGF or VEGF222/NF),[1]; [9],downregulated the expression of their respective targets
same,expression of the respective target (VEGF or VEGF222/NF),[2]; [10],downregulated the expression of their respective targets
5′-GCCTTTGTITTCCATTTCC-3′ (GCCTTTGTTTTCCATTTCC; chemistry not given here) [shRNA NF #1],expression of the respective target (VEGF or VEGF222/NF),[1],downregulated the expression of their respective targets
same,expression of the respective target (VEGF or VEGF222/NF),[2],downregulated the expression of their respective targets
"VEGF165: conventional pro-angiogenic VEGF isoform, recombinant, used as comparator (protein) APMAEGGGQNHHEVVKFMDVYQRSYCHPIETLVDIFQEYPDEIEYIFKPSCVPLMRCGGCCNDEGLECVPTEESNITMQIMRIKPHQGQHIGEMSFLQHNKCECRPKKDRARQENPCGPCSERRKHLFVQDPQTCKCSCKNTDSRCKARQLELNERTCRCDKPRR",reddish aspect and hemoglobin content of plugs,[4],equivalent
same,ACHN cell proliferation,[5],stimulated ACHN cell proliferation
"recombinant VEGF222/NF protein produced in HEK293 cells by ProteoGenix (ligand, also called VEGF222 New Form; rVEGF222/NF) GSHHHHHHSGLEVLFQGPAPMAEGGGQNHHEVVKFMDVYQRSYCHPIETLVDIFQEYPDEIEYIFKPSCVPLMRCGGCCNDEGLECVPTEESNITMQIMRIKPHQGQHIGEMSFLQHNKCECRPKKDRARQENPCGPCSERRKHLFVQDPQTCKCSCKNTDSRCKARQLELNERTCSLCFPFPSDVTSRGGEPGRRKEPPSGFREPDLSPGKTDTERSIQKPRCRHHTITIDRTVLNPET",Kd,[6],1.12 nM
same,Kd,[7],0.73 nM
same,Kd,[8],10.4 nM
